# Results published in patent US6605628B1, “Method of using 5-(arysulfonyl)-, 5-(arylsulfanyl)-and 5-(arylsulfanyl)thiazolidine-2,4-diones for inhibition of farnesyl-protein transferase” (Wyeth Holdings Corporation, priority 2001, dated 2003).
# Read-outs that look alike come from different tables or passages of the source.
# Biological target: FPTase (Homo sapiens, UniProt P49354+P49356)
# Assay: in vitro FTase Inhibition Assay, H-Ras used as substrate for farnesylation
# Format: biochemical
# Protocol: Enzyme test procedure: FPTase inhibition in vitro assay was performed according to James, G. L., Brown, M. S., and Goldstein, J. L., Methods in Enzymology, 1995, 255, 38-46; and Garcia, M. A., et al., J. Biol. Chem., 1993, 268, 18415-18420.
# Materials—Purified FPTase (Moomaw, J. F. and Casey, P. J., J. Biol. Chem., 1992, 267, 17438-17443), purified His6-Ras, inhibitor compounds at 10 mg/ml or 10 mM in 100% DMSO, ^3H-FPP (50,000 dpm/pmol) Amersham, TCA/SDS (6%/2%), TCA (6%), Glass fiber filters ([…]), vacuum manifold or 96 well filtration plates.
# Methods—1. Dilute FPTase inhibitors from stock solutions to 2.5× in 2.5% DMSO, 10 mM DTT, 0.5% octyl-B-glucoside. 2. Solution #1 is added to FPTase reaction in a volume of […]. 3. Standard reaction mix, […], contains 50 mM Tris (7.5), 10 mM ZnCl2, 3 mM MgCl2, 20 mM KCl, 5 mM DTT, 0.2% octyl-B-glucoside, 1% DMSO, […] His6-Ras, 10 ng FPTase, and various concentrations of FPTase inhibitors. 4. Incubate for 30-90 min at 25° C. 5. Stop reactions with TCA/SDS (6%/2%), hold at 4° C. for 45-60 min. 6. Filter by manifold or 96 well plate, wash filter 3-5× with TCA (6%). 7. Add scintillant to filters, measure ^3H-FPP incorporation into Ras protein.
# Analysis of Results—Percent inhibition by test compounds is determined by the following:
# (cpm from precipitated Ras with test compounds)−(background cpm)×100=% inhibition.
# (cpm from precipitated Ras without test compounds)−(background cpm)
# [1] = Table II, read-out: IC50 (wi. H-Ras)
SMILES,IC50 [1] [nM],"IC50 (Table I, read-out: IC50 H-Ras*) [nM]"
"O=C1NC(=O)C(CC#Cc2ccccc2Cl)(S(=O)(=O)c2ccccc2)S1 (stereo not drawn) [Example 258, 5-Benzenesulfonyl-5-[3-(2-chloro-phenyl)-prop-2-ynyl]-thiazolidine-2,4-dione]",2000,
"Cc1ccc(S(=O)(=O)C2(CC#Cc3cc(C(F)(F)F)cc(C(F)(F)F)c3)SC(=O)NC2=O)cc1 (stereo not drawn) [Example 260, 5-[3-(3,5-bis-Trifluoromethyl-phenyl)-prop-2-ynyl]-5-(toluene-4-sulfonyl)-thiazolidine-2,4-dione]",100,
"O=C1NC(=O)C(CC#Cc2ccc(Br)cc2)(S(=O)(=O)c2ccc(Cl)cc2)S1 (stereo not drawn) [Example 263, 5-[3-(4-Bromo-phenyl)-prop-2-ynyl]-5-(4-chloro-benzenesulfonyl)-thiazolidine-2,4-dione]",150,
"O=C1NC(=O)C(CC#Cc2ccc(C(F)(F)F)cc2)(S(=O)(=O)c2ccc(F)cc2)S1 (stereo not drawn) [Example 264, 5-(4-Fluoro-benzenesulfonyl)-5-[3-(4-trifluoromethyl-phenyl)-prop-2-ynyl)-thiazolidine-2,4-dione]",300,
"O=C1NC(=O)C(CC#Cc2ccc(Cl)cc2)(S(=O)(=O)c2ccc3ccccc3c2)S1 (stereo not drawn) [Example 239, 5-[3-(4-Chloro-phenyl)-prop-2-ynyl]-5-(napthalene-2-sulfonyl)-thiazolidine-2,4-dione]",700,
"O=C1NC(=O)C(CC#Cc2ccc(Cl)cc2)(S(=O)(=O)c2ccc(Br)cc2)S1 (stereo not drawn) [Example 245, 5-(4-Bromo-benzenesulfonyl)-5-[3-(4-chloro-phenyl)-prop-2-ynyl]-thiazolidine-2,4-dione]",50,
"O=C1NC(=O)C(CC#Cc2ccc(Cl)cc2)(S(=O)(=O)c2ccc(Cl)cc2)S1 (stereo not drawn) [Example 244, 5-(4-Chloro-benzenesulfonyl)-5-[3-(4-chloro-phenyl)-prop-2-ynyl]-thiazolidine-2,4-dione]",100,
"O=C1NC(=O)C(CC#Cc2cc(C(F)(F)F)cc(C(F)(F)F)c2)(S(=O)(=O)c2ccccc2)S1 (stereo not drawn) [Example 259, 5-Benzenesulfonyl-5-[3-(3,5-bis-trifluoromethyl-phenyl)-prop-2-ynyl]-thiazolidine-2,4-dione]",150,
Cc1ccc(S(=O)(=O)C2(CC#Cc3ccc(Cl)cc3)SC(=O)NC2=O)cc1 (stereo not drawn) [Example 262],70,
"Cc1cccc(S(=O)(=O)C2(CC#Cc3ccc(Cl)cc3)SC(=O)NC2=O)c1 (stereo not drawn) [Example 256, 5-[3-(4-Chloro-phenyl)-prop-2-ynyl]-5-(toluene-3-sulfonyl)-thiazolidine-2,4-dione]",800,
"Cc1ccc(SC2(CC#Cc3ccc(Cl)cc3)SC(=O)NC2=O)cc1 (stereo not drawn) [Example 267, 5-[3-(4-Chloro-phenyl)-prop-2-ynyl]-5-(p-tolylsulfanyl)-thiazolidine-2,4-dione]",5000,
"Cc1ccc(S(=O)(=O)C2(CC#Cc3cccc(Cl)c3)SC(=O)NC2=O)cc1 (stereo not drawn) [Example 257, 5-[3-(3-Chloro-phenyl)-prop-2-ynyl]-5-(toluene-4-sulfonyl)-thiazolidine-2,4-dione]",35,
"O=C1NC(=O)C(CC#Cc2cccc(Cl)c2)(S(=O)(=O)c2ccccc2)S1 (stereo not drawn) [Example 261, 5-Benzenesulfonyl-5-[3-(3-chloro-phenyl)-prop-2-ynyl]-thiazolidine-2,4-dione]",300,
"O=C1NC(=O)C(CC#Cc2ccc(F)cc2)(S(=O)(=O)c2ccc(Cl)cc2)S1 (stereo not drawn) [Example 255, 5-(4-Chloro-benzenesulfonyl)-5-[3-(4-fluoro-phenyl)-prop-2-ynyl]-thiazolidine-2,4-dione]",150,
"Cc1ccc(S(=O)(=O)C2(CC#Cc3ccc(C(F)(F)F)cc3)SC(=O)NC2=O)cc1 (stereo not drawn) [Example 251, 5-(Toluene-4-sulfonyl)-5-[3-(4-trifluoromethyl-phenyl)-prop-2-ynyl]-thiazolidine-2,4-dione]",150,
"Cc1ccc(S(=O)(=O)C2(CC#Cc3ccc(Br)cc3)SC(=O)NC2=O)cc1 (stereo not drawn) [Example 253, 5-[3-(4-Bromo-phenyl)-prop-2-ynyl]-5-(toluene-4-sulfonyl)-thiazolidine-2,4-dione]",90,
"COc1ccc(S(=O)(=O)C2(CC#Cc3ccc(Cl)cc3)SC(=O)NC2=O)cc1 (stereo not drawn) [Example 249, 5-[3-(4-Chloro-phenyl)-prop-2-ynyl]-5-(4-methoxy-benzenesulfonyl)-thiazolidine-2,4-dione]",400,
"O=C1NC(=O)C(CC#Cc2cc(C(F)(F)F)cc(C(F)(F)F)c2)S1 (stereo not drawn) [Example 266, 5-[3-(3,5-bis-Trifluoromethyl-phenyl)-prop-2-ynyl]-thiazolidine-2,4-dione]",500,
"O=C1NC(=O)C(CC#Cc2ccc(C(F)(F)F)cc2)(S(=O)(=O)c2ccccc2)S1 (stereo not drawn) [Example 254, 5-Benzenesulfonyl-5-[3-(4-trifluoromethyl-phenyl)-prop-2-ynyl]-thiazolidine-2,4-dione]",500,
"O=C1NC(=O)C(CCCC#Cc2ccc(Cl)cc2)(Sc2ccc(F)cc2)S1 (stereo not drawn) [Example 96, 5-[5-(4-Chlorophenyl)pent-4-ynyl]-5-(4-fluorophenylsulfanyl)-thiazolidine-2,4-dione]",,700
"O=C1NC(=O)C(CC#Cc2ccccc2)(S(=O)(=O)c2ccc3ccccc3c2)S1 (stereo not drawn) [Example 250, 5-(Naphthalene-2-sulfonyl)-5-(3-phenyl-prop-2-ynyl)-thiazolidine-2,4-dione]",1500,
"O=C1NC(=O)C(CC#Cc2ccc(Cl)cc2)(S(=O)(=O)c2ccc3ccccc3n2)S1 (stereo not drawn) [Example 265, 5-[3-(4-Chloro-phenyl)-prop-2-ynyl]-5-(quinoline-2-sulfonyl)-thiazolidine-2,4-dione]",1500,
"Cc1ccc(C#CCC2(S(=O)(=O)c3ccc(C)cc3)SC(=O)NC2=O)cc1 (stereo not drawn) [Example 247, 5-(Toluene-4-sulfonyl)-5-[3-(p-tolyl)-prop-2-ynyl]-thiazolidine-2,4-dione]",300,
"O=C1NC(=O)C(CC#Cc2ccc(Cl)cc2)(S(=O)(=O)c2ccccc2)S1 (stereo not drawn) [Example 240, 5-Benzenesulfonyl-5-[3-(4-chloro-phenyl)-prop-2-ynyl]-thiazolidine-2,4-dione]",500,
"O=C1NC(=O)C(CC#Cc2ccccc2)(S(=O)(=O)c2ccc(Cl)cc2)S1 (stereo not drawn) [Example 242, 5-(4-Chloro-benzenesulfonyl)-5-(3-phenyl-prop-2-ynyl)-thiazolidine-2,4-dione]",1000,
"Cc1ccc(S(=O)(=O)C2(CC#Cc3cccs3)SC(=O)NC2=O)cc1 (stereo not drawn) [Example 168, 5-(3-Thiophen-2-yl-prop-2-ynyl)-5-(toluene-4-sulfonyl)-thiazolidine-2,4-dione]",,280
"Cc1ccc(S(=O)(=O)C2(CC#Cc3ccc(F)cc3)SC(=O)NC2=O)cc1 (stereo not drawn) [Example 246, 5-[3-(4-Fluoro-phenyl)-prop-2-ynyl]-5-(toluene-4-sulfonyl)-thiazolidine-2,4-dione]",300,
"O=C1NC(=O)C(CC#Cc2ccccc2)(S(=O)(=O)c2ccccc2)S1 (stereo not drawn) [Example 241, 5-Benzenesulfonyl-5-[3-phenyl-prop-2-ynyl]-thiazolidine-2,4-dione]",1500,
"O=C1NC(=O)C(CC#Cc2ccc(Cl)cc2)(S(=O)(=O)c2ccc(F)cc2)S1 (stereo not drawn) [Example 243, 5-[3-(4-Chloro-phenyl)-prop-2-ynyl]-5-(4-fluoro-benzenesulfonyl)-thiazolidine-2,4-dione]",300,
"COc1ccc(C#CCC2(S(=O)(=O)c3ccc(C)cc3)SC(=O)NC2=O)cc1 (stereo not drawn) [Example 252, 5-[3-(4-Methoxy-phenyl)-prop-2-ynyl]-5-(toluene-4-sulfonyl)-thiazolidine-2,4-dione]",80,
